From US8846411B2, “Derivatives, reagents, and immunoassay for detecting levetiracetam” (Microgenics Corporation, priority 2009, dated 2014)

How the values were obtained:
[1] = test system: anti-levetiracetam antibody prepared with immunogen 18a; assay: Antibody avidity by ELISA binding inhibition study with levetiracetam; details: Sheep No. 5479 antibody
Protocol: The avidity of the anti-levetiracetam antibody prepared with immunogen 18a for various levetiracetam derivatives were determined by a binding inhibition study. Samples were prepared in 1 mL of PBS at pH 7.4 with 0.1% BSA. A composition having 30% Bmax titer or 50% Bmax titer was used to divide the titer value as obtained in Example 38 into approximately half the titer value. Using 30% Bmax, an antibody titer of 1:10000 was diluted to […] during the sample preparation stage. About 50 μL of levetiracetam at different concentrations or calibrator values, (0, 5, 10, 20, 40, 80 μg/ml) were applied to a plate as prepared in accordance with Example 38. About 50 μL of the diluted antibody was dispensed into the plate, and the compositions in the plate were mixed for 1 min on a horizontal plate shaker. No levetiracetam or anti-levetiracetam antibody was added to the first row of the plate, which served as a negative control. A second row with anti-levetiracetam antibody but without levetiracetam was used as the positive control. The plate was incubated for 60 min and washed three times with 250 μL of PBS at pH 7.4 with 0.05% Tween 20. About 125 μL of a diluted derivative such as 18b or 19 in PBS at pH 7.4 was added to each well of the plate. The plate was incubated for 60 min at 37° C. and washed as described above. Approximately 125 μL of ABTS substrate was added to each well of the plate and incubated for 20 min.

[2] = cited from earlier work

| Compound | B/Bo ([1]; Levetiracetam 5 μg/mL, Antigen 18b) | B/Bo ([1]; Levetiracetam 5 μg/mL, Antigen 19) | B/Bo ([1]; Levetiracetam 10 μg/mL, Antigen 18b) | B/Bo ([1]; Levetiracetam 10 μg/mL, Antigen 19) | B/Bo ([1]; Levetiracetam 20 μg/mL, Antigen 18b) | B/Bo ([1]; Levetiracetam 20 μg/mL, Antigen 19) | B/Bo ([1]; Levetiracetam 40 μg/mL, Antigen 18b) | B/Bo ([1]; Levetiracetam 40 μg/mL, Antigen 19) | B/Bo ([1]; Levetiracetam 80 μg/mL, Antigen 18b) | B/Bo ([1]; Levetiracetam 80 μg/mL, Antigen 19) | nominal therapeutic range ([2]; in vivo) [µg/mL] | optimal trough serum/plasma concentration range ([2]; trough, serum/plasma) [mg/L] | given dose excreted unchanged in urine ([2]; urine, elimination via the kidney) | share of the administered dose accounted for by metabolite excreted in urine ([2]; urine, after administration of LEV) |
| --- | --- | --- | --- | --- | --- | --- | --- | --- | --- | --- | --- | --- | --- | --- |
| CC[C@@H](C(N)=O)N1CCCC1=O [Levetiracetam, (−)-(S)-α-ethyl-2-oxo-1-pyrrolidine acetamide] | 0.96 | 0.98 | 0.98 | 0.91 | 0.90 | 0.86 | 0.88 | 0.78 | 0.87 | 0.77 | 6 to 20 | 10 to 60 | approximately 64% |  |
| O=C(O)CCCN1CCCC1=O [2-pyrrolidone-N-butyric acid] |  |  |  |  |  |  |  |  |  |  |  |  |  | approximately 27% |
